Measured values as given in patent US11576913B2 (priority 2018, dated 2023).
Where two headings read alike, the source gives them in different places.

Columns and labels:
[1] = tested on: subjects suffering from the Insomnia Disorder adult insomnia; assay: Polysomnography crossover study of sleep parameters (SE, TST, WASO, LPS, Stage N2); format: in vivo, human; settings: for Latency to Persistent Sleep (LPS) Least Squares Means (STDE) / Sleep Efficiency (SE) Least Squares Means (STDE) / Time Spent in Sleep Stage N2 Least Squares Means (STDE) / Total Sleep Time (TST) Least Squares Means (STDE) / Wake after Sleep Onset (WASO) Least Squares Means (STDE): average of Night 1 and Night 2, full analysis population; for WASO, decrease in the difference of LSMs: stated as decrease
Method: The study randomized up to about 30 subjects to achieve at least about 24 completers (i.e., subjects who completed all 5 Dosing Periods). The subjects included otherwise healthy males and females aged 18 to 64 years, inclusive, with a history of adult insomnia (insomnia disorder as defined by DSM-5 criteria) and who otherwise had no significant medical or psychiatric history.
Compound (1C) was administered orally in an immediate release tablet comprising the pharmaceutically acceptable excipients croscarmellose sodium (FMC Health and Nutrition, Philadelphia, Pa.), hydroxypropylcellulose (Ashland Inc., Covington, Ky.), microcrystalline cellulose (Sigma-Aldrich, St. Louis, Mo.), and mannitol (SPI Pharma, Wilmington, Del.). […] Placebo tablets matching the Compound (1C) tablets were orally administered in the same way. The placebo tablets comprised the four above-described pharmaceutically acceptable excipients but with no Compound (1C).
During a baseline visit (Days −7 to −6), successful subjects arrived at a clinical unit in the afternoon or evening of Day −7. At that time, they began a stay of two consecutive nights during which each subject underwent continuous PSG recording for eight hours on the first night (Night 1) to assess eligibility criteria and to screen out subjects with sleep apnea or periodic limb movements with arousal. Still-successful subjects underwent another eight hours of continuous PSG recording on the second night (Night 2), which determined if a subject met the sleep-eligibility criteria based on the average of data obtained on Nights 1 and 2 of the baseline visit. During the baseline visit, subjects also practiced and took a post-sleep test used in this study, i.e., the digit symbol substitution test (“DSST”), and familiarized themselves with the Karolinska Sleepiness Scale (“KSS”) evaluation form. To assess a subject's perception of the “quality” and “quantity” of sleep, a post-sleep questionnaire was used to ask questions such as “how many minutes did it take you to fall asleep last night after you got into bed and the lights were turned off?”, “how many times did you awaken during the night?”, and “on a scale from 1 to 10, with 1 being poor and 10 being excellent, how would you rate the quality of your sleep last night?”. Subjects who met all eligibility criteria after the baseline visit returned approximately seven days later to enter the treatment period (Dosing Periods 1-5).
A summary of the PSG recording procedure that was used is as follows. Standard placements for EEG electrodes were derived according to the international 10-20 system (see, e.g., Jasper, “The ten-twenty electrode system of the international federation,” Electroencephalography Clin. Neurophys. 10:371-375 (1958)) with the exception of the change of the A1-A2 labels to M1-M2, pursuant to the AASM Manual for Scoring of Sleep (Berry et al., “The AASM Manual for the Scoring of Sleep and Associated Events: Rules, Terminology and Technical Specifications,” Version 2.0.3, American Academy of Sleep Medicine, Darien, Ill., (2014)). This system requires that electrodes be positioned in measured relationships to landmark anatomical points. Standard placements for EOG, submental EMG electrodes, anterior tibialis EMG electrodes, and airflow sensors were consistent with the AASM Manual for Scoring of Sleep.
(2) The 27-day treatment period included five dosing periods (Dosing Periods 1-5) that were at least 5 days apart. Once continued eligibility was confirmed, subjects were randomized as to treatment upon check-in on Day 1. […] The time subjects spent in bed in an undisturbed environment was fixed at 8 hours (i.e., 960 PSG epochs of 30 seconds duration per epoch).
Following the evening-time dosing with study drug, subjects underwent eight hours of continuous PSG recording. […]

[2] = tested on: subjects suffering from the Insomnia Disorder adult insomnia; format: in vivo, human; settings: for mean change in DSST score net of placebo, compared with suvorexant: about 9 hours after administration, vs 10, 20 and 40 mg suvorexant, FIG. 11
Method: Literature data for indications of sleep efficacy and attendant residual effects after suvorexant administration, orally administered as BELSOMRA tablets at a single dose of 10 mg, 20 mg, and 40 mg, was available. Literature data for indications of sleep efficacy after zolpidem administration, orally administered as AMBIEN CR tablets, i.e., an extended-release tablet comprising the tartrate salt, in a single dose of 12.5 mg was also available. […] Additionally, the data shown in FIG. 8 through FIG. 11 are for the treatment effect net of placebo.

[3] = not given; remark: listed apart in the source
[4] = all treatment groups (0.5, 1.0, 3.0, 6.0 mg)
[5] = 0.2 mg aqueous suspension (N =24)
[6] = 0.6 mg aqueous suspension (N =24)
[7] = 2.0 mg aqueous suspension (N =23)
[8] = 6.0 mg aqueous suspension (N =25)

O=C(O)c1nc2ccccc2n([C@H]2C[C@H]3CCC[C@@H](C2)N3C2CC3CCCC(C3)C2)c1=O (stereo partly shown) [Compound (1C)]
Latency to Persistent Sleep (LPS) Least Squares Means (STDE) ([1]; 0.5 mg oral): −25.9 (2.78) min | Sleep Efficiency (SE) Least Squares Means (STDE) ([1]; 0.5 mg oral): 12.1 (1.02) % | Time Spent in Sleep Stage N2 Least Squares Means (STDE) ([1]; 0.5 mg oral): 57.1 (5.53) min | Total Sleep Time (TST) Least Squares Means (STDE) ([1]; 0.5 mg oral): 57.9 (4.88) min | Wake after Sleep Onset (WASO) Least Squares Means (STDE) ([1]; 0.5 mg oral): −37.1 (4.54) min | Latency to Persistent Sleep (LPS) Difference of Least Squares Means vs. Placebo ([1]; 0.5 mg vs. Placebo): 2.6 min | Sleep Efficiency (SE) Difference of Least Squares Means vs. Placebo ([1]; 0.5 mg vs. Placebo): 4.1% | Time Spent in Sleep Stage N2 Difference of Least Squares Means vs. Placebo ([1]; 0.5 mg vs. Placebo): 33.6 min | Total Sleep Time (TST) Difference of Least Squares Means vs. Placebo ([1]; 0.5 mg vs. Placebo): 19.8 min | Wake after Sleep Onset (WASO) Difference of Least Squares Means vs. Placebo ([1]; 0.5 mg vs. Placebo): -24.3 min | WASO, decrease in the difference of LSMs ([1]; 0.5 mg vs. placebo): 24.3 min | Latency to Persistent Sleep (LPS) Least Squares Means (STDE) ([1]; 1.0 mg oral): −29.9 (2.78) min | Sleep Efficiency (SE) Least Squares Means (STDE) ([1]; 1.0 mg oral): 14.7 (1.02) % | Time Spent in Sleep Stage N2 Least Squares Means (STDE) ([1]; 1.0 mg oral): 69.2 (5.53) min | Total Sleep Time (TST) Least Squares Means (STDE) ([1]; 1.0 mg oral): 70.3 (4.88) min | Wake after Sleep Onset (WASO) Least Squares Means (STDE) ([1]; 1.0 mg oral): −44.5 (4.54) min | Latency to Persistent Sleep (LPS) Difference of Least Squares Means vs. Placebo ([1]; 1.0 mg vs. Placebo): -1.4 min | Sleep Efficiency (SE) Difference of Least Squares Means vs. Placebo ([1]; 1.0 mg vs. Placebo): 6.7% | Time Spent in Sleep Stage N2 Difference of Least Squares Means vs. Placebo ([1]; 1.0 mg vs. Placebo): 45.7 min | Total Sleep Time (TST) Difference of Least Squares Means vs. Placebo ([1]; 1.0 mg vs. Placebo): 32.3 min | Wake after Sleep Onset (WASO) Difference of Least Squares Means vs. Placebo ([1]; 1.0 mg vs. Placebo): -31.8 min | WASO, decrease in the difference of LSMs ([1]; 1.0 mg vs. placebo): 31.8 min | Latency to Persistent Sleep (LPS) Least Squares Means (STDE) ([1]; 3.0 mg oral): −29.0 (2.82) min | Sleep Efficiency (SE) Least Squares Means (STDE) ([1]; 3.0 mg oral): 17.6 (1.03) % | Time Spent in Sleep Stage N2 Least Squares Means (STDE) ([1]; 3.0 mg oral): 132.1 (5.6) min | Total Sleep Time (TST) Least Squares Means (STDE) ([1]; 3.0 mg oral): 84.5 (4.96) min | Wake after Sleep Onset (WASO) Least Squares Means (STDE) ([1]; 3.0 mg oral): −59.1 (4.60) min | Latency to Persistent Sleep (LPS) Difference of Least Squares Means vs. Placebo ([1]; 3.0 mg vs. Placebo): -0.5 min | Sleep Efficiency (SE) Difference of Least Squares Means vs. Placebo ([1]; 3.0 mg vs. Placebo): 9.7% | Time Spent in Sleep Stage N2 Difference of Least Squares Means vs. Placebo ([1]; 3.0 mg vs. Placebo): 108.5 min | Total Sleep Time (TST) Difference of Least Squares Means vs. Placebo ([1]; 3.0 mg vs. Placebo): 46.4 min | Wake after Sleep Onset (WASO) Difference of Least Squares Means vs. Placebo ([1]; 3.0 mg vs. Placebo): -46.4 min | WASO, decrease in the difference of LSMs ([1]; 3.0 mg vs. placebo): 46.4 min | Latency to Persistent Sleep (LPS) Least Squares Means (STDE) ([1]; 6.0 mg oral): −31.7 (2.78) min | Sleep Efficiency (SE) Least Squares Means (STDE) ([1]; 6.0 mg oral): 19.0 (1.02) % | Time Spent in Sleep Stage N2 Least Squares Means (STDE) ([1]; 6.0 mg oral): 146.3 (5.5) min | Total Sleep Time (TST) Least Squares Means (STDE) ([1]; 6.0 mg oral): 91.0 (4.88) min | Wake after Sleep Onset (WASO) Least Squares Means (STDE) ([1]; 6.0 mg oral): −63.5 (4.54) min | Latency to Persistent Sleep (LPS) Difference of Least Squares Means vs. Placebo ([1]; 6.0 mg vs. Placebo): -3.2 min | Sleep Efficiency (SE) Difference of Least Squares Means vs. Placebo ([1]; 6.0 mg vs. Placebo): 11.0% | Time Spent in Sleep Stage N2 Difference of Least Squares Means vs. Placebo ([1]; 6.0 mg vs. Placebo): 122.8 min | Total Sleep Time (TST) Difference of Least Squares Means vs. Placebo ([1]; 6.0 mg vs. Placebo): 52.9 min | Wake after Sleep Onset (WASO) Difference of Least Squares Means vs. Placebo ([1]; 6.0 mg vs. Placebo): -50.8 min | WASO, decrease in the difference of LSMs ([1]; 6.0 mg vs. placebo): 50.8 min | Sleep Efficiency vs placebo [1, 4]: significantly increased | Total Sleep Time vs placebo [1, 4]: significantly increased | Wake after Sleep Onset vs placebo [1, 4]: significantly decreased | amount of time spent in sleep Stage N2 vs placebo [1, 4]: significantly increased | Latency to Persistent Sleep vs placebo ([1]; any of the treatment groups (0.5, 1.0, 3.0, 6.0 mg)): not significantly different | Mean % Dose Excreted Unchanged (Cohort 1, 3 mg): 89% | Mean Total Amount Excreted Unchanged (Cohort 1, 3 mg): 2.66 mg | Mean % Dose Excreted Unchanged (Cohort 2, 10 mg): 70% | Mean Total Amount Excreted Unchanged (Cohort 2, 10 mg): 6.95 mg | Mean % Dose Excreted Unchanged (Cohort 3, 30 mg): 28% | Mean Total Amount Excreted Unchanged (Cohort 3, 30 mg): 8.37 mg | mean improvement in WASO net of placebo, compared with suvorexant ([2]; 0.5 mg Compound (1C) vs 10 mg or 20 mg suvorexant, Night 1, FIG. 9): nearly comparable to | mean improvement in WASO net of placebo, compared with zolpidem ([2]; 0.5 mg Compound (1C) vs 12.5 mg zolpidem, Night 1, FIG. 9): far greater than | mean change in DSST score net of placebo, compared with suvorexant ([2]; 0.5 mg): small and comparable | mean improvement in SE net of placebo, compared with suvorexant ([2]; 1.0 mg Compound (1C) vs 10 mg suvorexant, Night 1, FIG. 8): greater than | mean improvement in SE net of placebo, compared with zolpidem ([2]; 1.0 mg Compound (1C) vs 12.5 mg zolpidem, Night 1, FIG. 8): greater than | mean improvement in WASO net of placebo, compared with suvorexant ([2]; 1.0 mg Compound (1C) vs 40 mg suvorexant, Night 1, FIG. 9): nearly comparable to | mean change in DSST score net of placebo, compared with suvorexant ([2]; 1.0 mg): small and comparable | mean improvement in LPS net of placebo, compared with suvorexant ([2]; 6.0 mg Compound (1C) vs 10 mg suvorexant, Night 1, FIG. 10): comparable to | mean improvement in SE net of placebo, compared with suvorexant ([2]; 6.0 mg Compound (1C) vs 40 mg suvorexant, Night 1, FIG. 8): comparable to | mean improvement in LPS net of placebo, compared with suvorexant or zolpidem ([2]; up to 6.0 mg Compound (1C) vs 20 mg suvorexant or 12.5 mg zolpidem, Night 1, FIG. 10): not as great as | Ae, Mean [3, 5]: 0.2232 mg | Fe, Mean (fraction of dose excreted unchanged in urine over 24 hours) [3, 5]: 111.60% | Ae, Mean [3, 6]: 0.6891 mg | Fe, Mean (fraction of dose excreted unchanged in urine over 24 hours) [3, 6]: 114.84% | Ae, Mean [3, 7]: 2.165 mg | Fe, Mean (fraction of dose excreted unchanged in urine over 24 hours) [3, 7]: 108.26% | Ae, Mean [3, 8]: 6.653 mg | Fe, Mean (fraction of dose excreted unchanged in urine over 24 hours) [3, 8]: 110.88%
